What was measured:
A2780-S cell line = test: Growth inhibition assay (modified MTT); type: cell-based, human; settings: five-day MTT
Procedure: (§1) The sensitivities of the cell lines to cisplatinum, carboplatinum, and compounds A-F were determined using a growth inhibition assay which was a modified version of the MTT method (modified version of MTT method described in Appendix B).
(§2) The following is a brief description of the eleven different cell lines used in the growth inhibition assay: • The A2780 cell line (1 in FIGS. 1-9) is a human ovarian cell line which is sensitive to cisplatinum and carboplatinum. […] The cor123/cpr (7) cell line is a modified version of the cor123 cell line which has been modified to be resistant to cisplatinum and carboplatinum. • The ccu24 (8) cell line is an epithelial ovarian cancer cell line, developed at the Christie Hospital from a tumour biopsy, and the ccu24/cpr (9) cell line is a modified version of this cell line which is cisplatinum and carboplatinum resistant. • L1210 (10) is a murine leukemia cell line and L1210/M1140 (11) is its platinum drug resistant subline.
(§3) The cell toxicity studies were performed using a modification of the method MTT.^7 The principle of the assay is to assess the growth inhibitory effect of a drug at various doses over a five-day time course. This assay was performed in 96-well microtitre plates. Cells were seeded at densities of 400-1,000 cells per well, depending on the doubling time of the cell line. All cell dilutions were performed in growth medium containing 10% FCS (foetal calf serum).
(§4) Compounds under investigation were dissolved in DMSO (dimethylsulphoxide). Serial dilutions of compound were made into the cell suspension, ensuring that the proportion of DMSO remained below 0.5%. 200 μl of cells and drug mix was added to the 96-well plates in triplicate. The plates were incubated for five days at 5% CO2 and 37° C. After this time, the plates were removed from the incubator and 50 μl of a 3 mg/ml solution of MTT [3-(4,5-dimethyl-thiazol-2-yl)-2,5-diphenyl tetrazolium bromide] was added to each well and incubated in the same conditions for another 3 hours. The medium from each well was aspirated and the formazan crystals were solubilised in 200 μl of DMSO. The plates were read using a Multiskan platereader at 540 nm and 690 nm. Growth inhibition curves were constructed using mean and standard deviation of the triplicate absorbance values and from these curves the IC50 values were calculated.

A2780carb cell line = test: Growth inhibition assay (modified MTT); type: cell-based, human; settings: A2780carb, five-day MTT
Procedure: as §1, §2, §3, §4

A2780cis cell line = test: Growth inhibition assay (modified MTT); type: cell-based, human; settings: A2780cis, five-day MTT
Procedure: as §1, §2, §3, §4

ccu24 cell line = test: Growth inhibition assay (modified MTT); type: cell-based, human; settings: five-day MTT
Procedure: as §1, §2, §3, §4

ccu24/cpr cell line = test: Growth inhibition assay (modified MTT); type: cell-based, human; settings: five-day MTT
Procedure: as §1, §2, §3, §4

cor123 cell line = test: Growth inhibition assay (modified MTT); type: cell-based, human; settings: five-day MTT
Procedure: as §1, §2, §3, §4

cor123/cpr cell line = test: Growth inhibition assay (modified MTT); type: cell-based, human; settings: five-day MTT
Procedure: as §1, §2, §3, §4

mcp1 cell line = test: Growth inhibition assay (modified MTT); type: cell-based, human; settings: five-day MTT
Procedure: as §1, §2, §3, §4

mcp8 cell line = test: Growth inhibition assay (modified MTT); type: cell-based, human; settings: five-day MTT
Procedure: as §1, §2, §3, §4

L1210 cell line = test: Growth inhibition assay (modified MTT); type: cell-based, murine; settings: five-day MTT
Procedure: as §1, §2, §3, §4

L1210/M1140 cell line = test: Growth inhibition assay (modified MTT); type: cell-based, murine; settings: five-day MTT
Procedure: as §1, §2, §3, §4

[1] = system: parental and platinum-resistant cell lines; test: Comet assay, DNA cross-linking, summary of FIGS. 1-9; type: cell-based; settings: for DNA cross-linking in parental cell lines: parental (platinum-sensitive) A2780, L1210 and cor123 cell lines; for DNA cross-linking in parental cell lines / DNA cross-linking in platinum-resistant cell lines: FIGS. 1 and 2
Procedure: (§5) Preliminary studies have been carried out to investigate the mechanism underlying this increased sensitivity. These studies were carried out using the Comet assay (described in Appendix C), which measures damage to DNA. The results are shown in FIGS. 1 (cisplatinum), 2 (carboplatinum), 3 to 8 (compounds A-F) and 9 (phenylgoldtriphenylphospine, PAuP).
(§6) DNA damage was measured by the single cell gel electrophoresis (SCGE) assay or “Comet assay”, originally developed by Ostling and Johnson^8. This is a method for determining the extent of DNA damage and repair capacity within individual cells.^9-11 It has previously been shown that this technique can be used to investigate the mechanism of action of different DNA damaging agents.^12
(§7) Cells were trypsinised, suspended in 0.5 ml of ice cold fresh medium and transferred into plastic 24-well dishes prior to embedding in agarose. For the cross-linking studies treated and control samples were chilled on ice (to prevent any repair of DNA damage) and irradiated to a dose of 20 Gy in a Caesium-137 source (0.4 Gy/min). Control, (unirradiated, non-drug treated cells) were maintained on ice in the same manner as treated samples.
(§8) Glass microscope slides, frosted at one end, were pre-coated with 1% normal agarose in distilled water. These slides were allowed to air dry overnight prior to use. A 1% low melting point agarose (LMP) mixture in PBS was melted and held at 45° C. 1 ml of LMP was then added to 0.5 ml of cell suspension on ice and the resultant mixture was pipetted onto a pre-coated glass microscope slide and allowed to set for 1-2 minutes before being transferred to an ice tray. The slides were immersed in ice cold lysis solution (100 mM EDTA, 10 mM Tris-HCl, 1% Triton ×100, 1% DMSO, 2.5M NaCl) for 1 hr, and washed three times by immersion in fresh double distilled water for 15 minutes.
(§9) Slides were then placed onto a flat bed electrophoresis tank and covered (5-6 mm) with alkali unwinding solution (50 mM NaOH, 1 mM EDTA buffered to pH 12.5) and left under subdued lighting for 45 minutes to allow the DNA to unwind before being subjected to electrophoresis at 0.6V/cm for 25 minutes. Each slide was rinsed with 2×1 ml of 0.4M Tris-HCl, pH 8.0 and allowed to dry in air. The dried slides were then rehydrated for 20 minutes with double distilled water, 2×1 ml of propidium iodide solution (2.5 μg/ml) was added and staining was allowed to proceed for 15 minutes. Slides were then immersed in 1 litre of double distilled water for 1 hour to reduce excess background staining. The slides were cover slipped and then examined at 250× magnification under an epifluorescent microscope (Zeiss-Jenamed) using green light from a 50 watt mercury source with a 580 nm reflector and a 590 nm barrier filter set. Images were captured using an attached Sony HAD-1 interline CCD camera and Komet software analysis package (Kinetic Imaging). Twenty-five images from each of two duplicate slides were captured and analysed and the individual “comet moments” as defined by Olive et al^13, were calculated. The total fluorescence of the image represents the amount of DNA present and the length of the image, measured in pixels, represents the length of migration of the DNA. The head and tail areas of the image were identified and the intensity of each was determined. The tail moment is calculated by multiplying the fraction of DNA present in the tail by half the length of the tail.

A2780/mcp8 = test: Comet assay, DNA crosslinking; type: cell-based, human; settings: ratio >1 = more cross-linking in parental than in platinum-resistant line
Procedure: as §5
(§10) Table 3 illustrates the results of the following calculation using the DNA cross-linking results obtained in the Comet assays:
as §6, §7, §8, §9

A2780cis = test: Comet assay, DNA crosslinking; type: cell-based, human; settings: ratio >1 = more cross-linking in parental than in platinum-resistant line
Procedure: as §5, §10, §6, §7, §8, §9

A2780mcp1 = test: Comet assay, DNA crosslinking; type: cell-based, human; settings: ratio >1 = more cross-linking in parental than in platinum-resistant line
Procedure: as §5, §10, §6, §7, §8, §9

ccu24 = test: Comet assay, DNA crosslinking; type: cell-based, human; settings: ratio >1 = more cross-linking in parental than in platinum-resistant line
Procedure: as §5, §10, §6, §7, §8, §9

cor123 = test: Comet assay, DNA crosslinking; type: cell-based, human; settings: ratio >1 = more cross-linking in parental than in platinum-resistant line
Procedure: as §5, §10, §6, §7, §8, §9

L1210 = test: Comet assay, DNA crosslinking; type: cell-based, murine; settings: ratio >1 = more cross-linking in parental than in platinum-resistant line
Procedure: as §5, §10, §6, §7, §8, §9

A2780carb = test: Comet assay, DNA crosslinking; type: cell-based, human; settings: ratio >1 = more cross-linking in parental than in platinum-resistant line
Procedure: as §5, §10, §6, §7, §8, §9

eleven cell lines = test: Growth inhibition assay (modified MTT), summary over cell lines; type: cell-based, mouse and human; settings: text reference to Table 1; cell line not stated
Procedure: as §1
as §2, with “subline. […]” for “subline.”
Compounds under investigation were dissolved in DMSO (dimethylsulphoxide). […] The plates were read using a Multiskan platereader at 540 nm and 690 nm. Growth inhibition curves were constructed using mean and standard deviation of the triplicate absorbance values and from these curves the IC50 values were calculated.

[2] = Table 2, further series of assays
[3] = Table 2, further series of assays, A2780/mcp1
[4] = Table 2, further series of assays, A2780/mcp8
[5] = Table 1, first series of assays
[6] = Table 1, first series of assays, mcp1
[7] = Table 1, first series of assays, mcp8

SMILES | IC50 (A2780-S cell line; [2]) [nM] | IC50 (A2780carb cell line; [2]) [nM] | IC50 (A2780cis cell line; [2]) [nM] | IC50 (ccu24 cell line; [2]) [nM] | IC50 (ccu24/cpr cell line; [2]) [nM] | IC50 (cor123 cell line; [2]) [nM] | IC50 (cor123/cpr cell line; [2]) [nM] | IC50 (mcp1 cell line; [3]) [nM] | IC50 (mcp8 cell line; [4]) [nM] | IC50 (L1210 cell line; [2]) [nM] | IC50 (L1210/M1140 cell line; [2]) [nM] | IC50 (A2780-S cell line; [5]) [nM] | IC50 (A2780carb cell line; [5]) [nM] | IC50 (A2780cis cell line; [5]) [nM] | DNA crosslinking (Comet) ratio (A2780/mcp8) | DNA crosslinking (Comet) ratio (A2780cis) | DNA crosslinking (Comet) ratio (A2780mcp1) | DNA crosslinking (Comet) ratio (ccu24) | DNA crosslinking (Comet) ratio (cor123) | DNA crosslinking (Comet) ratio (L1210) | other results
N.N.O=C([O-])C1(C(=O)[O-])CCC1.[Pt+2] [Carboplatin, carboplatin, reference compound] | 1590 | 32200 | 34600 | 5820 | 27200 | 5350 | 29800 | 24800 | 26800 | 15300 | 47800 | – | – | – | – | – | – | – | – | – | DNA cross-linking in parental cell lines [1]: extensive DNA cross-linking; DNA cross-linking in platinum-resistant cell lines [1]: much less cross-linking
N.N.[Cl][Pt][Cl] [Cisplatin, cisplatin, reference compound] | – | – | – | – | – | – | – | – | – | – | – | 1320 | 27600 | 30500 | 5.70 | 5.65 | 5.40 | 4.65 | 5.72 | 3.37 | IC50 (ccu24 cell line; [5]): 4320 nM; IC50 (ccu24/cpr cell line; [5]): 24800 nM; IC50 (cor123 cell line; [5]): 3430 nM; IC50 (cor123/cpr cell line; [5]): 26600 nM; IC50 (mcp1 cell line; [6]): 19900 nM; IC50 (mcp8 cell line; [7]): 24400 nM; IC50 (L1210 cell line; [5]): 12100 nM; IC50 (L1210/M1140 cell line; [5]): 44900 nM; DNA cross-linking in parental cell lines [1]: extensive DNA cross-linking; DNA cross-linking in platinum-resistant cell lines [1]: much less cross-linking; DNA crosslinking (Comet) ratio, all resistant cell lines ([1]; summary of Table 3): a ratio greater than unity
c1ccc([PH]([Au][CH2]c2ccc[c]([Au][PH](c3ccccc3)(c3ccccc3)c3ccccc3)c2)(c2ccccc2)c2ccccc2)cc1 [E] | 11.2 | 0.9 | 0.7 | 13.5 | 5.4 | 21.1 | 4.4 | 3.9 | 4.7 | 35.6 | 8.5 | 8.9 | 0.6 | 0.4 | 0.48 | 0.39 | 0.41 | 0.46 | 0.43 | 0.40 | IC50 (ccu24 cell line; [5]): 10.2 nM; IC50 (ccu24/cpr cell line; [5]): 2.4 nM; IC50 (cor123 cell line; [5]): 17.7 nM; IC50 (cor123/cpr cell line; [5]): 1.4 nM; IC50 (mcp1 cell line; [6]): 0.9 nM; IC50 (mcp8 cell line; [7]): 0.9 nM; IC50 (L1210 cell line; [5]): 32.5 nM; IC50 (L1210/M1140 cell line; [5]): 5.3 nM; DNA crosslinking (Comet) ratio (A2780carb): 0.40
c1ccc([PH]([Au][CH2]c2cccc[c]2[Au][PH](c2ccccc2)(c2ccccc2)c2ccccc2)(c2ccccc2)c2ccccc2)cc1 [F] | 24.3 | 10.4 | 8.3 | 26.4 | 12.2 | 31.1 | 14.6 | 10.4 | 11.4 | 31.2 | 14.4 | 20.4 | 7.3 | 5.4 | 0.56 | 0.52 | 0.54 | 0.60 | 0.62 | 0.53 | IC50 (ccu24 cell line; [5]): 22.1 nM; IC50 (ccu24/cpr cell line; [5]): 9.5 nM; IC50 (cor123 cell line; [5]): 28.2 nM; IC50 (cor123/cpr cell line; [5]): 11.4 nM; IC50 (mcp1 cell line; [6]): 6.3 nM; IC50 (mcp8 cell line; [7]): 5.3 nM; IC50 (L1210 cell line; [5]): 28.1 nM; IC50 (L1210/M1140 cell line; [5]): 11.4 nM; DNA crosslinking (Comet) ratio (A2780carb): 0.61
[Au+].[c-]1ccccc1.c1ccc([PH+](c2ccccc2)c2ccccc2)cc1 [PAuP, phenylgoldtriphenylphospine, reference compound] | – | – | – | – | – | – | – | – | – | – | – | > 10000 | – | > 10000 | 1.33 | 1.00 | 1.33 | 1.00 | 0.75 | 1.33 | DNA crosslinking (Comet) ratio (A2780carb): 1.33; ID50 (cytotoxicity) (eleven cell lines): > 10000 mu; level of cross-linking ([1]; FIG. 9, compared to the di-gold compounds): low compared to the di-gold compounds

Source: patent US7732485B2, “Treatment of cancer” (The University of Manchester, priority 2003, dated 2010)
